Test results published in patent publication US20240293416A1, “TREATMENT OF LIVER DISORDERS WITH A THR-ß AGONIST” (Terns Pharmaceuticals, Inc., priority 2021, published 2024).

What was measured:
[1] = tested on: biopsy-confirmed DIO-NASH mice; assay: DIO-GAN NASH mice: body weight, organ weight, body composition; type: in vivo, C57BL/6JRj mice; details: doses per Table 16
Excerpt: C57BL/6JRj male mice (n=138) were fed the Gubra Amylin NASH (GAN) diet (40% fat, 22% fructose, 2% cholesterol [D09100310, Research Diets]) or lean chow diet for 35 weeks before treatment start. Prior to treatment all animals underwent liver biopsy for histological confirmation (steatosis score ≥2 and fibrosis stage ≥1) and stratification using the nonalcoholic fatty liver disease (NAFLD) activity scoring (NAS) and fibrosis staging system. The diet-induced obese mice on GAN diet (DIO-GAN) were randomized to 8 treatment groups (Table 16) based on percent-area of picrosirius red (PSR) staining. […] Vehicle-dosed lean chow-fed controls served as healthy controls (n=10). Mice were maintained on their respective diets (GAN or lean chow) for the duration of the study. Within-subject comparisons (pre-vs. post-treatment) were performed for liver biopsy histopathological scores. Terminal quantitative endpoints included plasma/liver biochemistry, liver histomorphometry, and liver transcriptomic analysis by RNAseq.
The diet-induced obese, Gubra Amylin NASH model (DIO-GAN) recapitulates many of the histopathological features of human NASH (Hansen 2020). […] To induce NASH disease, C57BL/6JRj mice were maintained a on diet high in fat, cholesterol, and fructose (GAN diet) for >35 weeks. Prior to therapeutic intervention, mice were biopsied to assess NASH disease and fibrosis severity; mice with a steatosis score <2 and fibrosis stage <1 were excluded from the study. DIO-GAN mice were then randomized into 8 treatment groups (n=16 per group) based on the percent fractional area of Picrosirius red (PSR) staining of the pre-treatment biopsy as well as body fat tissue mass determined by whole body Echo-magnetic resonance imaging (EchoMRI). […] DIO-GAN mice administered vehicle by oral gavage once daily served as a control. Mice were treated for a total of 12 weeks and were maintained on GAN diet throughout the study. Lean mice (n=10), maintained on normal chow diet throughout the study served as healthy controls.
Body composition was determined at baseline (Week-1) and Week 11 of the study by whole body EchoMRI to determine the relative levels lean and fat tissue as a percentage of body weight. Baseline levels of lean and fat tissue were well balanced across treatment groups (FIGS. 33A and 33B).

[2] = DIO-GAN NASH mice: trough plasma compound levels by LC-MS/MS; type: in vivo, C57BL/6JRj mice; details: plasma 21-24 hours post final dose
Description: Terminal plasma samples were harvested by cardiac puncture approximately 21-24 hours after the last administration of compound(s). Terminal plasma samples were analyzed by high resolution LC-MS/MS using a Triple Quad 6500+ instrument. 20 μL of plasma sample was mixed with 200 μL of internal standard solution (100 ng/ml Labetalol+100 ng/ml Tolbutamide in acetonitrile), vortexed, and centrifuged at 4,000 rpm for 15 min at 4° C. […] The internal standard (retention time: 0.76 min), was used for quantification of the glucuronide metabolite of Compound 2 (retention time: 0.77 min). Calibration curves (1-3000 ng/mL) were generated in a matrix of mouse plasma (pooled vehicle control) for each analyte.
Terminal plasma samples collected by cardiac puncture 21-24 hours post final treatment dose (i.e., trough) were analyzed by LC-MS/MS. Values represent mean and standard deviation (SD). ND, not determined.

[3] = Single ascending dose trial: adverse event and safety monitoring; type: in vivo, human
Description: (§1) A single-ascending dose clinical trial of Compound 1 (potassium salt) was performed.

[4] = Capsule stability studies under stressed conditions; type: physicochemical
Description: A direct encapsulation (DE) formulation study of Compound 1 was carried out. This work included DE process development for the preparation of 1 mg, 3 mg, 10 mg, 50 mg and placebo capsules by a semi-automatic or automatic capsule filling machine. Ingredients, ratios, filling weight, flowability and uniformity of the formulation were all evaluated. The developed processes are suitable for the manufacture of Compound 1 drug products for future clinical studies.
Silica gel desiccant was subsequently proposed for the packaging and proven to be effective to mitigate the formation of the impurity.
The effectiveness of the silica gel desiccant in minimizing the degradation was evaluated through comparative stability studies with or without desiccant included in the primary packaging. […] Therefore, packaging with 1 g desiccant was determined to improve product quality and increase product shelf life.

[5] = tested on: SHBG, Apo B and serum lipids; assay: Multiple ascending dose trial: serum PD biomarkers; type: in vivo, human
Description: A multiple-ascending dose clinical trial of Compound 1 was performed.
(§2) (See Table 5, FIG. 7.) PK parameters were estimated via noncompartmental methods using Phoenix® WinNonlin® (Certara, LP, Princeton, NJ). Concentrations of serum pharmacodynamic (PD) biomarkers apolipoprotein B (Apo B) and sex hormone binding globulin (SHBG) were measured using an immunoassay and serum lipids were determined using spectrophotometry.
(§3) PD sampling was also performed. Percent change from baseline for PD markers were calculated using an ANCOVA model with percent change from baseline as dependent variable, treatment group as fixed effect, and baseline as covariate. Analyses used observed data only without imputation for missing data.

[6] = pH effect on PK performance in beagle dogs; type: in vivo; details: 10 mg capsule, 5% SLS; pentagastrin vs famotidine pre-treatment, n=3 per group
Excerpt: To determine the pH effect on PK performance, beagle dogs were divided into two groups (n=3 per group).

[7] = tested on: SHBG, Apo B and serum lipids; assay: Single ascending dose trial: serum PD biomarkers; type: in vivo, human; details: for Apo B Change / SHBG Change: n = 6
Description: as §1
as §2, with “PK” for “(See Table 5, FIG. 7.) PK”, “Phoenix WinNonlink” for “Phoenix® WinNonlin®”
as §3, with “performed pre-dose, and 48 hours and 72 hours post-dose.” for “also performed.”

SMILES: Cn1cc(C(=O)O)c2ccc(C3CCC(OCc4c(-c5c(Cl)cccc5Cl)noc4C4CC4)CC3)cc21 (stereo not shown) [Compound 2]
- body weight at the end of study vs DIO-GAN vehicle control ([1]; PO QD 12 weeks): significantly lower
- body weight during the study ([1]; PO QD 12 weeks): decreased body weight
- fat tissue (% BW, EchoMRI) ([1]; Week 11): reduced levels of fat tissue
- relative lean tissue mass (EchoMRI) ([1]; Week 11): significant increases
- Mean trough analyte concentration (SD) ([2]; treatment group Combo-high, n = 14): 3.3 (1.8) ng/mL
- Mean trough analyte concentration (SD) ([2]; treatment group Combo-med, n = 16): 5.8 (3.5) ng/mL
- Mean trough analyte concentration (SD) ([2]; treatment group Compound 2 (10 mg/kg), n = 16): 7.4 (3.8) ng/mL

SMILES: N#Cc1nn(-c2cc(Cl)c(Oc3n[nH]c(=O)c4ccccc34)c(Cl)c2)c(=O)[nH]c1=O [Compound 1, 2-(3,5-dichloro-4-((4-oxo-3,4-dihydrophthalazin-1-yl)oxy)phenyl)-3,5-dioxo-2,3,4,5-tetrahydro-1,2,4-triazine-6-nitrile]
- Heart rates ([3]; 24 hours after single dose): remained stable and within the normal range
- plasma AUC0-∞ without any significant side effects ([3]; single ascending dose studies): ≤ 50,000 ng*hg/mL
- overall safety and tolerability ([3]; single ascending doses up to 60 mg): overall safe and well-tolerated
- TSH, free T3, and free T4 levels ([3]; single doses 3-60 mg): remained within the normal range
- bilirubin levels above the normal range ([3]; single doses 3-60 mg): no subjects
- cardiac biomarkers (troponin I, CK-MB) or other clinical safety tests ([3]; single doses 3-60 mg): no notable changes
- cardiac related AEs (e.g., tachycardia, arrythmias) ([3]; single doses 3-60 mg): No cardiac related AEs
- increases in ALT more than 2-times ULN ([3]; single doses 3-60 mg): No subjects
- severity of adverse events ([3]; single doses 3-60 mg): mild or moderate in severity
- vital signs or ECG parameters ([3]; single doses 3-60 mg): no remarkable changes
- capsule short stability ([4]; 3 mg strength capsule, 60° C./75% RH, two weeks): a degradation impurity formed
- effect of desiccant packaging on degradation impurities ([4]; 1, 3, 10 and 50 mg capsules, 40° C./75% RH): significantly retarded the formation of degradation impurities
- total cholesterol, LDL-c, Apo B, and triglycerides ([5]; all dose levels): Reductions
- HDL-c ([5]; day 15): did not significantly change
- total cholesterol, LDL-c, Apo B, and triglycerides ([5]; day 15, 10 mg dose cohort): significant reductions
- SHBG ([5]; multiple doses, even at 3 mg QD): significant and dose-dependent increases
- pH effect on plasma concentrations [6]: Minimal pH effect
- Apo B Change ([7]; Day 3 after single 3 mg dose): −1.5%
- SHBG Change ([7]; Day 3 after single 3 mg dose): 0.20 nmol/L
- Apo B Change ([7]; Day 3 after single 10 mg dose): −5.6%
- SHBG Change ([7]; Day 3 after single 30 mg dose): 6.0 nmol/L
- LDL-c, total cholesterol, and Apo-B ([7]; Day 3 following single dose, similar on Day 4): Dose-dependent decreases
- triglyceride levels ([7]; after a single dose): No significant changes
- SHBG relative to placebo ([7]; single doses of ≥10 mg): Significant increases
